In patent publication US7163919B2, “Anticancer composition” (priority 2002, dated 2007) one finds viability data, which are given here for one compound.

A short description of the data set: MTT cellular viability assay, 293. In kind it is cell-based. Particulars: human, 293 cells (human kidney epithelial cell line, ATCC CRL-1573), Example 7, FIG. 5, normal cell line 293. (In general: Formazan colour is commonly taken as a measure of viable cells.)

Consider `CC(=O)O[C@H]1C(=O)[C@@]2(C)[C@H]([C@H](OC(=O)c3ccccc3)[C@]3(O)C[C@H](OC(=O)[C@H](O)[C@@H](NC(=O)c4ccccc4)c4ccccc4)C(C)=C1C3(C)C)[C@]1(OC(C)=O)CO[C@@H]1C[C@@H]2O` [TAXOL], for which the viability (in general, a read-out of living cells in per cent, often relative to untreated cells) at 24 h is 20 to 25%.
